The text below walks through data of EP2060252A1, “New formulation of galactosylceramide derivatives” (Wittycell, priority 2007, dated 2009).

Series [1] in a line: Mixed micelles with bile salts: macroscopic aspect after reconstitution. It counts as physicochemical. The note with it: for Aspect of the solution after reconstitution: PBS57 200 µg/mL; for Macroscopic observation right after reconstitution with 5% glucose: PBS57 50 µg/mL, ratio bile salt / PBS57 1/1. Here is the method: The mixed-micelle solution manufacturing process requires co-solubilization of the lipid and the bile salt into a solvent (ethanol) that is then evaporated before the final aqueous medium is added to obtain the mixed-micellar solution. A 5% glucose solution was used as the aqueous reconstitution medium here.
Both sodium taurocholate and deoxycholate were tested. A first indication that the mixed aggregates are truly formed is the clear aspect of the solution.
PBS57 concentration in the above 2 experiments was 50 µg/mL. The ratio bile salt / PBS57 was here 1/1.
Solutions of PBS57 at 200 µg/mL associated (equimolar ratio) to sodium taurocholate or sodium deoxycholate were manufactured by the same protocol.

Series [2] in a line: Micelle to vesicle phase transition upon dilution: aspect. It counts as physicochemical. The conditions noted are these: mixed micellar solution from sodium taurocholate and PBS57 (50 µg/mL). The protocol: It is well established that phospholipids/bile salt mixed aggregates are going through a phase transition to form vesicles (liposomes) once diluted.
The same experiment was carried out on a mixed micellar solution obtained from sodium taurocholate and PBS57 (50 µg/mL).

The conditions of series [3]: water.

With `CCCCCCCC/C=C\CCCCCCCCCCCCCC(=O)N[C@@H](CO[C@H]1O[C@H](CNC(C)=O)[C@H](O)[C@H](O)[C@H]1O)[C@H](O)[C@H](O)CCCCCCCCCCCCCC` [PBS57], the “Aspect of the solution after reconstitution” value in series [1] (equimolar ratio to sodium deoxycholate) and in series [1] (equimolar ratio to sodium taurocholate) was “perfectly clear” in each case. For the same compound, the “Macroscopic observation right after reconstitution with 5% glucose” value is reported as “Turbid with large aggregates, flocculation slowly turning to sedimentation” in series [1] (excipient Deoxycholate) and “Slightly turbid” in series [1] (excipient Taurocholate). The Aspect upon dilution result in series [2] is on record as “slightly turbid suspension”.

Take α-galactosylceramide [α-GC]: the Thermodynamic aqueous solubility result in series [3] was “below 5 µg/mL”.
